What was measured:
panelists = experiment: Warming sensation in lotion, panel evaluation (Example 20); format: in vivo, human; settings: for Overall warming intensity (1 = no effect, 5 = extremely warming): 0.5% loading in in-house lotion base, 5 panelists, control 1.25
Excerpt: All materials were made with 0.5% loading of active compound in an in-house lotion base except the control, which contains no active material. There were a total of 5 panelists to evaluate the lotion samples.

mouth = experiment: Perceived warming sensations in the mouth, "swish and spit" protocol (Example 15); format: in vivo, human; settings: 1% by weight in ethanol, diluted at 10 ppm in water, one comment per participant (5 expert evaluators)
Experimental: A warming composition was prepared by adding 1% by weight of the warming agent of Example 1 to ethanol. The resulting warming composition was diluted at 10 ppm in water. The diluted warming composition was evaluated for its perceived warming sensations in the mouth by 5 expert evaluators following a “swish and spit” protocol, in which the sample is placed into a small tasting cup, taken into the mouth, and swished around, then the sample is spit back into the original tasting cup and disposed of. Additional compounds were evaluated and compared for perceived warming sensations in the mouth by expert evaluators following the “swish and spit” protocol.

expert panelists = experiment: Warming evaluation in milk chocolate by expert panelists (Example 17); format: in vivo, human; settings: 5% cut in MCT at 0.3% in milk chocolate; for Average Warming Intensity (1-9): 1=none, 9=very strong, control without warming compound 1.7; for Onset: panelists chose slow, medium or fast

melting point [°C]	Structure (SMILES)	Heat sensation when working out (sweating) after application (panelists; 0.5% in lotion base, noticed by an evaluator)	Overall warming intensity (1 = no effect, 5 = extremely warming) (panelists)	Comments (perceived warming sensations in the mouth) (mouth)	Average Warming Intensity (1-9) (expert panelists; 10 expert panelists)	Character/Comments (expert panelists; 10 expert panelists, listed as compound C)	Onset (expert panelists)
56	COc1cc(CC(=O)OCCOc2ccccc2)ccc1O [Example 1, 2-Phenoxyethyl 2-(4-hydroxy-3-methoxyphenyl)acetate]	the heat sensation came back at the same intensity as first described at initial application	2.90	Immediate burn, intense but fades really quickly	6.8	pleasant linger, without an irritating burn	Fast (“fast onset” relates to the onset of warming sensation in less than about 10 seconds (i.e., quick))
–	COc1ccc(CC(C)COC(=O)Cc2ccc(O)c(OC)c2)cc1 (stereo not shown) [Example 5, 3-(4-methoxyphenyl)-2-methylpropyl 2-(4-hydroxy-3-methoxyphenyl)acetate]	–	1.80	–	2.25	–	Slow (“slow onset” relates to the onset of warming sensation occurring after about 15 seconds (i.e., delayed))
–	COc1cc(CC(=O)OC/C=C(\C)CCC=C(C)C)ccc1O [Example 13, (E)-3,7-Dimethylocta-2,6-dien-1-yl 2-(4-hydroxy-3-methoxyphenyl)acetate]	–	2.70	–	2.7	–	Slow (“slow onset” relates to the onset of warming sensation occurring after about 15 seconds (i.e., delayed))

Source: patent US11059771B2, “Warming sensation compounds” (TAKASAGO INTERNATIONAL CORPORATION, priority 2016, dated 2021)
